Laboratory results reported in ChEMBL document CHEMBL1129125, “Tc-99m-labeled fibrinogen receptor antagonists: design and synthesis of cyclic RGD peptides for the detection of thrombi” (Bioorg Med Chem Lett, 1996).

Columns and labels:
Format in all cases: functional, organism-based
Details in all cases: Canis lupus familiaris; tested as the 125I-labelled form
Canis familiaris [1] = species on record: Canis familiaris; test: Compound was tested for uptake in thrombus in the canine arteriovenous shunt model in arterial rich condition.
Canis familiaris [2] = species on record: Canis familiaris; test: Compound was tested for uptake in thrombus in the canine arteriovenous shunt model in venous rich condition.
Canis familiaris [3] = species on record: Canis familiaris; test: Thrombus and blood ratio was determined in the canine arteriovenous shunt model in venous rich condition.
Canis familiaris [4] = species on record: Canis familiaris; test: Thrombus and blood ratio was determined in the canine arteriovenous shunt model in arterial rich condition.

Row | SMILES | ID/g (Canis familiaris [1]) | ID/g (Canis familiaris [2]) | Uptake ratio (Canis familiaris [3]) | Uptake ratio (Canis familiaris [4])
1 | CN1C(=O)[C@@H](Cc2ccc(O)c(I)c2)NC(=O)c2cccc(c2)CNC(=O)[C@H](CC(=O)O)NC(=O)CNC(=O)[C@@H]1CCCN=C(N)N | 1.81% | 0.25% | 19.3 | 173
2 | CN1C(=O)[C@@H](CCCCNC(=O)CCc2ccc(O)c(I)c2)NC(=O)c2cccc(c2)CNC(=O)[C@H](CC(=O)O)NC(=O)CNC(=O)[C@@H]1CCCN=C(N)N | 2.6% | 0.45% | 7.82 | 43.9
